In brackets after ≈: the same amount, converted by molar mass. Like-named read-outs stand apart in the source and are kept apart here.
Tests used:
Assay type in all cases: cell-based
E. coli MC4100 = experiment: Minimal inhibitory concentration, E. coli MC4100; settings: read-out: MIC (μM) E. coli MC4100 ara+
Description: (§1) General Procedure for Determination of Minimal Inhibitory Concentrations
(§2) Overnight cultures (5 mL) of bacterial strains were grown in LB media or TSA media (for S. aureus) at 37° C. and with shaking at 220 rpm until saturation. The overnight culture was diluted serially 1:100 (50 μL in 5 mL sterile media) and then 1:100 (250 μL in 25 mL sterile media). The 25 mL of diluted culture was then dispensed to a sterile 96 well plate (Corning #3370). 198 μL of culture were dispensed into row A and 100 μL of this culture were dispensed into rows B-H. Aminocoumarin compound (DMSO stock) were added to the first row and then the row was mixed by pipetting. 100 μL of culture from row A were transferred to row B and the serial dilution continued until the final 100 μL from row H were discarded. The plate was incubated without shaking in a 37° C. for 16 hours and then read by visible light spectrophotometer (Molecular Devices) at 600 nm. The minimal inhibitory concentration (MIC) was determined as the lowest concentration of compound concentration that inhibited the growth of bacteria.
(§3) The compounds of the invention were assessed for activities against the pathogens S. aureus RN4220 and MW2, E. cloacae 13047, A. baumannii 19606, K. pneumoniae 700721, E. coli MC4100, 25922. All activities are reported in micromolar (uM) and are 16 hour minimal inhibitory concentrations at 37° C. The assay is detailed in Example 11 and is titled “General Procedure for Determination of Minimal Inhibitory Concentrations.”

S. aureus RN4220 = experiment: Minimal inhibitory concentration, S. aureus RN4220; settings: read-out: MIC (μM) S. aureus RN4220
Description: as §1, §2, §3

E. cloacae 13047 = experiment: Minimal inhibitory concentration, E. cloacae 13047; settings: read-out: MIC (μM) E. cloacae 13047
Description: as §1, §2, §3

K. pneumoniae 700721 = experiment: Minimal inhibitory concentration, K. pneumoniae 700721; settings: read-out: MIC (μM) K. pneumoniae 700721
Description: as §1, §2, §3

E. coli 25922 = experiment: Minimal inhibitory concentration, E. coli 25922; settings: read-out: MIC (μM) E. coli 25922
Description: as §1, §2, §3

S. aureus MW2 = experiment: Minimal inhibitory concentration, S. aureus MW2; settings: read-out: MIC (μM) S. aureus MW2 (MRSA)
Description: as §1, §2, §3

A. baumannii 19606 = experiment: Minimal inhibitory concentration, A. baumannii 19606; settings: read-out: MIC (μM) A. baumannii 19606
Description: as §1, §2, §3

[1] = Escherichia coli, MC4100, 16 h, 16 hour minimal inhibitory concentration at 37° C.
[2] = Staphylococcus aureus, RN4220, 16 h, 16 hour minimal inhibitory concentration at 37° C.
[3] = Enterobacter cloacae, 13047, 16 hour minimal inhibitory concentration at 37° C.
[4] = Klebsiella pneumoniae, 700721, 16 hour minimal inhibitory concentration at 37° C.
[5] = Escherichia coli, 25922, 16 h, 16 hour minimal inhibitory concentration at 37° C.
[6] = Staphylococcus aureus, MRSA, 16 h, 16 hour minimal inhibitory concentration at 37° C.
[7] = Acinetobacter baumannii, 19606, 16 h, 16 hour minimal inhibitory concentration at 37° C.
[8] = 16 hour minimal inhibitory concentration at 37° C.

| SMILES | MIC (E. coli MC4100; [1]) [µM] | MIC (S. aureus RN4220; [2]) [µM] | MIC (E. cloacae 13047; [3]) [µM] | MIC (K. pneumoniae 700721; [4]) [µM] | MIC (E. coli 25922; [5]) [µM] | MIC (S. aureus MW2; [6]) [µM] | MIC (A. baumannii 19606; [7]) [µM] | other results |
| --- | --- | --- | --- | --- | --- | --- | --- | --- |
| CO[C@@H]1[C@@H](OC(N)=O)[C@@H](O)[C@H](Oc2ccc3c(OCc4ccccc4)c(NC(=O)c4ccc(O)c(CC=C(C)C)c4)c(=O)oc3c2C)OC1(C)C [Compound 211] | > 200 | > 100 | > 100 | > 100 | > 200 | > 100 | > 50 | – |
| CO[C@@H]1[C@@H](OC(N)=O)[C@@H](O)[C@H](Oc2ccc3c(O)c(NC(=O)c4ccc(C(=O)c5ccccc5)cc4)c(=O)oc3c2C)OC1(C)C [Compound 233] | > 200 | 40 (≈ 25.3 µg/mL) | > 100 | > 100 | > 200 | 40 (≈ 25.3 µg/mL) | > 50 | – |
| CO[C@@H]1[C@@H](OC(N)=O)[C@@H](O)[C@H](Oc2ccc3c(O)c(NC(=O)C45CC6CC(CC(F)(C6)C4)C5)c(=O)oc3c2C)OC1(C)C [Compound 100] | – | – | – | – | – | – | – | MIC (E. coli MC4100; [8]): >200 µM; MIC (S. aureus RN4220; [8]): 83 µM (≈ 50.2 µg/mL); MIC (E. cloacae 13047; [8]): >100 µM; MIC (K. pneumoniae 700721; [8]): >100 µM; MIC (E. coli 25922; [8]): >200 µM; MIC (S. aureus MW2; [8]): 41 µM (≈ 24.8 µg/mL); MIC (A. baumannii 19606; [8]): >50 µM |
| CO[C@@H]1[C@@H](OC(N)=O)[C@@H](O)[C@H](Oc2ccc3c(O)c(NC(=O)c4cccc(-c5cccc(Br)c5)c4)c(=O)oc3c2C)OC1(C)C [Compound 234] | 18 (≈ 12.3 µg/mL) | 0.73 (≈ 0.499 µg/mL) | > 100 | > 100 | 18 (≈ 12.3 µg/mL) | 0.46 (≈ 0.314 µg/mL) | 18 (≈ 12.3 µg/mL) | – |
| CO[C@@H]1[C@@H](OC(N)=O)[C@@H](O)[C@H](Oc2ccc3c(O)c(NC(=O)c4cc(Oc5ccccc5)ccn4)c(=O)oc3c2C)OC1(C)C [Compound 239] | > 200 | 20 (≈ 12.4 µg/mL) | > 100 | > 100 | > 200 | 20 (≈ 12.4 µg/mL) | > 50 | – |
| CO[C@@H]1[C@@H](O)[C@@H](OC(=O)NC2CCCCC2)[C@H](Oc2ccc3c(O)c(NC(=O)c4ccc(O)c(CC=C(C)C)c4)c(=O)oc3c2C)OC1(C)C [Compound 110] | – | – | – | – | – | – | – | MIC (E. coli MC4100; [8]): >200 µM; MIC (S. aureus RN4220; [8]): >100 µM; MIC (E. cloacae 13047; [8]): >100 µM; MIC (K. pneumoniae 700721; [8]): >100 µM; MIC (E. coli 25922; [8]): >200 µM; MIC (S. aureus MW2; [8]): >100 µM; MIC (A. baumannii 19606; [8]): >50 µM |
| CO[C@@H]1[C@@H](O)[C@@H](OC(=O)c2cc(C)c(C)[nH]2)[C@H](Oc2ccc3c(O)c(NC(=O)c4ccc(O)c(CC=C(C)C)c4)c(=O)oc3c2C)OC1(C)C [Compound 214] | – | – | – | – | – | – | – | MIC (E. coli MC4100; Escherichia coli, MC4100, 16 h): > 200 µM; MIC (S. aureus RN4220; Staphylococcus aureus, RN4220, 16 h): 5 µM (≈ 3.45 µg/mL); MIC (E. cloacae 13047; Enterobacter cloacae, 13047, 16 h): > 100 µM; MIC (K. pneumoniae 700721; Klebsiella pneumoniae, 700721, 16 h): > 100 µM; MIC (E. coli 25922; Escherichia coli, 25922, 16 h): > 200 µM; MIC (S. aureus MW2; Staphylococcus aureus, MRSA, 16 h): 5 µM (≈ 3.45 µg/mL); MIC (A. baumannii 19606; Acinetobacter baumannii, 19606, 16 h): > 50 µM |
| CO[C@@H]1[C@@H](OC(N)=O)[C@@H](O)[C@H](Oc2ccc3c(O)c(NC(=O)c4ccc(F)c(Oc5ccccc5)c4)c(=O)oc3c2C)OC1(C)C [Compound 254] | 2.4 (≈ 1.53 µg/mL) | 10 (≈ 6.39 µg/mL) | 79 (≈ 50.4 µg/mL) | 20 (≈ 12.8 µg/mL) | 5 (≈ 3.19 µg/mL) | 10 (≈ 6.39 µg/mL) | > 50 | – |
| CO[C@@H]1[C@@H](OC(N)=O)[C@@H](O)[C@H](Oc2ccc3c(O)c(NC(=O)c4cccc(Nc5ccccc5)c4)c(=O)oc3c2C)OC1(C)C [Compound 218] | 80 (≈ 49.6 µg/mL) | 10 (≈ 6.2 µg/mL) | > 100 | > 100 | 161 (≈ 99.8 µg/mL) | 10 (≈ 6.2 µg/mL) | > 50 | – |
| CO[C@@H]1[C@@H](OC(=O)NC2CCCC2)[C@@H](O)[C@H](Oc2ccc3c(O)c(NC(=O)c4ccc(O)c(CC=C(C)C)c4)c(=O)oc3c2C)OC1(C)C [Compound 108] | – | – | – | – | – | – | – | MIC (E. coli MC4100; [8]): >200 µM; MIC (S. aureus RN4220; [8]): >100 µM; MIC (E. cloacae 13047; [8]): >100 µM; MIC (K. pneumoniae 700721; [8]): >100 µM; MIC (E. coli 25922; [8]): >200 µM; MIC (S. aureus MW2; [8]): >100 µM; MIC (A. baumannii 19606; [8]): >50 µM |
| CO[C@@H]1[C@@H](OC(N)=O)[C@@H](O)[C@H](Oc2ccc3c(O)c(NS(=O)(=O)c4cccc(-c5ccccc5)c4)c(=O)oc3c2C)OC1(C)C [Compound 202] | > 200 | > 100 | > 100 | > 100 | > 200 | > 100 | > 50 | – |
| CO[C@@H]1[C@@H](OC(N)=O)[C@@H](O)[C@H](Oc2ccc3c(O)c(NC(=O)c4cc(Oc5ccccc5)c(O)cc4O)c(=O)oc3c2C)OC1(C)C [Compound 244] | 4.8 (≈ 3.13 µg/mL) | 19 (≈ 12.4 µg/mL) | > 100 | 38 (≈ 24.8 µg/mL) | 38 (≈ 24.8 µg/mL) | 19 (≈ 12.4 µg/mL) | > 50 | – |
| CO[C@@H]1[C@@H](OC(N)=O)[C@@H](O)[C@H](Oc2ccc3c(O)c(NC(=O)c4ccc(O)c(C/C=C/CCC(=O)O)c4)c(=O)oc3c2C)OC1(C)C [Compound 203] | > 200 | > 100 | > 100 | > 100 | > 200 | > 100 | > 50 | – |
| CO[C@@H]1[C@@H](OC(N)=O)[C@@H](O)[C@H](Oc2ccc3c(O)c(NC(=O)c4ccc(I)c(-c5ccccc5)c4)c(=O)oc3c2C)OC1(C)C [Compound 227] | 9 (≈ 6.57 µg/mL) | 4 (≈ 2.92 µg/mL) | > 100 | 34 (≈ 24.8 µg/mL) | 34 (≈ 24.8 µg/mL) | 4 (≈ 2.92 µg/mL) | > 50 | – |
| CO[C@@H]1[C@@H](OC(=O)c2ccc(C)n2-c2ccccc2)[C@@H](O)[C@H](Oc2ccc3c(O)c(NC(=O)c4ccc(O)c(CC=C(C)C)c4)c(=O)oc3c2C)OC1(C)C [Compound 210] | > 200 | 33 (≈ 24.8 µg/mL) | > 100 | > 100 | > 200 | 33 (≈ 24.8 µg/mL) | > 50 | – |
| CO[C@@H]1[C@@H](O)[C@@H](OC(=O)NC(C)C)[C@H](Oc2ccc3c(O)c(NC(=O)c4ccc(O)c(CC=C(C)C)c4)c(=O)oc3c2C)OC1(C)C [Compound 105] | – | – | – | – | – | – | – | MIC (E. coli MC4100; [8]): >200 µM; MIC (S. aureus RN4220; [8]): >100 µM; MIC (E. cloacae 13047; [8]): >100 µM; MIC (K. pneumoniae 700721; [8]): >100 µM; MIC (E. coli 25922; [8]): >200 µM; MIC (S. aureus MW2; [8]): >100 µM; MIC (A. baumannii 19606; [8]): >50 µM |
| CO[C@@H]1[C@@H](OC(N)=O)[C@@H](O)[C@H](Oc2ccc3c(O)c(NC(=O)c4ccccc4Br)c(=O)oc3c2C)OC1(C)C [Compound 231] | > 200 | > 100 | > 100 | > 100 | > 200 | > 100 | > 50 | – |
| CO[C@@H]1[C@@H](OC(=O)Nc2ccccc2)[C@@H](O)[C@H](Oc2ccc3c(O)c(NC(=O)c4cccc(-c5ccc6ccccc6c5)c4)c(=O)oc3c2C)OC1(C)C [Compound 205] | > 200 | 9 (≈ 6.58 µg/mL) | > 100 | > 100 | > 200 | 9 (≈ 6.58 µg/mL) | > 50 | – |
| CO[C@@H]1[C@@H](OC(N)=O)[C@@H](O)[C@H](Oc2ccc3c(O)c(NC(=O)c4cccc(-c5ccccc5Br)c4)c(=O)oc3c2C)OC1(C)C [Compound 235] | 18 (≈ 12.3 µg/mL) | 9 (≈ 6.15 µg/mL) | > 100 | > 100 | 18 (≈ 12.3 µg/mL) | 5 (≈ 3.42 µg/mL) | > 50 | – |
| CO[C@@H]1[C@@H](OC(N)=O)[C@@H](O)[C@H](Oc2ccc3c(O)c(NC(=O)c4ccc(C)c(Oc5ccccc5)c4)c(=O)oc3c2C)OC1(C)C [Compound 255] | 2.4 (≈ 1.52 µg/mL) | 5 (≈ 3.17 µg/mL) | 77 (≈ 48.9 µg/mL) | 10 (≈ 6.35 µg/mL) | 5 (≈ 3.17 µg/mL) | 5 (≈ 3.17 µg/mL) | > 50 | – |
